Laboratory results: patent US7537891B2, “Identification of polynucleotides for predicting activity of compounds that interact with and/or modulate protein tyrosine kinases and/or protein tyrosine kinase pathways in breast cells” (Bristol-Myers Squibb Company, priority 2002, dated 2009)

Columns and labels:
Assay type in all cases: cell-based, human
ZR-75-1 breast cell line = test: In vitro cytotoxicity assay (MTS); parameters: key to True Class: “S” represents Sensitive; “R” represents Resistant
Description: (§1) The protein tyrosine kinase inhibitor compound (described in international application WO 00/62778, published Oct. 26, 2000) was tested for cytotoxicity in vitro against a panel of twenty-three human breast cell lines available from the American Type Culture Collection, ATCC, except H3396, which was obtained from Pacific Northwest Research Institute, Seattle Wash. The MCF7/Her2 cell line was established by stable transfection of MCF7 cells with the HER2 gene. Cytotoxicity was assessed in cells by the MTS (3-(4,5-dimethylthiazol-2-yl)-5-(3-carboxymethoxyphenyl)-2-(4-sulphenyl)-2H-tetrazolium, inner salt) assay (T. L. Riss et al., 1992, Mol. Biol. Cell, 3 (Suppl.):184a).
(§2) To carry out the assays, the breast cells were plated at 4,000 cells/well in 96 well microtiter plates, and 24 hours later, serially diluted drugs were added. The concentration range for the protein tyrosine kinase inhibitor compound BMS-A used in the cytotoxicity assay was from 5 μg/ml to 0.0016 μg/ml (roughly 10 μM to 0.0032 μM).
(§3) The cells were incubated at 37° C. for 72 hours at which time the tetrazolium dye, MTS (333 μg/ml final concentration), in combination with the electron coupling agent phenazine methosulfate (25 μM final concentration), was added. A dehydrogenase enzyme in live cells reduces the MTS to a form that absorbs light and can be quantified spectrophotometrically at 492 nM. The greater the absorbency the greater the number of live cells. The results are expressed as an IC50, which is the drug concentration required to inhibit cell proliferation (i.e. absorbance at 492 nm) to 50% of that of untreated control cells. The mean IC50 and standard deviation (SD) from multiple tests for each cell line were calculated.

HCC70 breast cell line = test: In vitro cytotoxicity assay (MTS); parameters: key to True Class: “S” represents Sensitive; “R” represents Resistant
Description: as §1, §2, §3

[1] = test system: MDA-MB-157 breast cell line; test: In vitro cytotoxicity assay (MTS); parameters: key to True Class: “S” represents Sensitive; “R” represents Resistant
Description: as §1, §2, §3

BT-549 breast cell line = test: In vitro cytotoxicity assay (MTS); parameters: key to True Class: “S” represents Sensitive; “R” represents Resistant
Description: as §1, §2, §3

BT-474 breast cell line = test: In vitro cytotoxicity assay (MTS); parameters: key to True Class: “S” represents Sensitive; “R” represents Resistant
Description: as §1, §2, §3

[2] = test system: polynucleotide expression in breast cell lines; test: Drug treatment study with expression profiling in 11 breast cell lines; conditions: 0.4 μM BMS-A, 24 hours; only in sensitive breast cell lines
Description: Eleven breast cell lines (5 sensitive and 6 resistant cell lines as indicated in bold in the Table 1) were used in a drug treatment study. Cells were treated with or without the BMS-A compound (0.4 μM) in 0.1% DMSO for 24 hours. Expression profiling was performed, the polynucleotide expression of a cell line treated with drug was compared pair-wisely to the polynucleotide expression of the same cell line without drug treatment. […]
Cells were treated with or without the BMS-A compound (0.4 μM) in 0.1% DMSO for 24 hours. Expression profiling was performed, and the data were analyzed using GeneChip® Expression Analysis software MAS 5.0 (Affymetrix, Santa Clara, Calif.). […] A change in p-value was calculated, indicating an increase, decrease or no change in polynucleotide expression. […]
The breast cells were grown under standard cell culture conditions: RPMI 1640 supplemented to contain 10% fetal bovine serum, 100 IU/ml penicillin, […], 2 mM L-glutamine and 10 mM Hepes (all from GibcoBRL, Rockville, Md.). […] The quality of the RNA was assessed by measuring the 28s:18s ribosomal RNA ratio using an Agilent 2100 bioanalyzer (Agilent Technologies, Rockville, Md.). The concentration of total RNA was determined spectrophotometrically. […]

`Cc1nc(Nc2ncc(C(=O)Nc3c(C)cccc3Cl)s2)cc(N2CCN(CCO)CC2)n1` [BMS-A] was tested, and the IC50 (ZR-75-1 breast cell line; ZR-75-1, 72 hours, mean of 2 to 5 determinations, read-out: mean IC50 (μM) to BMS-A) was > 9.52 µM, the Classification (ZR-75-1 breast cell line; ZR-75-1, resistance/sensitivity to BMS-A based on IC50) was “Resistant (those having a log10(IC50) above the mean log10(IC50) were considered to be resistant)” and the “True Class” value (ZR-75-1 breast cell line; Zr-75-1, assigned as in Table 1, based on the IC50 results for BMS-A) was “R”. The IC50 (HCC70 breast cell line; 72 hours, mean of 2 to 5 determinations, read-out: mean IC50 (μM) to BMS-A) was 0.0337 µM, the “True Class” value (HCC70 breast cell line; assigned as in Table 1, based on the IC50 results for BMS-A) was “S” and the Classification (HCC70 breast cell line; resistance/sensitivity to BMS-A based on IC50) was “Sensitive (The cell lines with a log10(IC50) below the mean log10(IC50) were defined as sensitive to the compound)”. The IC50 ([1]; MDA-MB-157, 72 hours, mean of 2 to 5 determinations, read-out: mean IC50 (μM) to BMS-A) was 0.0055 µM, the Classification ([1]; MDA-MB-157, resistance/sensitivity to BMS-A based on IC50) was “Sensitive (The cell lines with a log10(IC50) below the mean log10(IC50) were defined as sensitive to the compound)” and the “True Class” value ([1]; MDAMB157, assigned as in Table 1, based on the IC50 results for BMS-A) was “S”. The “True Class” value (BT-549 breast cell line; BT549, assigned as in Table 1, based on the IC50 results for BMS-A) was “R”, the IC50 (BT-549 breast cell line; BT-549, 72 hours, mean of 2 to 5 determinations, read-out: mean IC50 (μM) to BMS-A) was 9.06 µM and the Classification (BT-549 breast cell line; BT-549, resistance/sensitivity to BMS-A based on IC50) was “Resistant (those having a log10(IC50) above the mean log10(IC50) were considered to be resistant)”. The “True Class” value (BT-474 breast cell line; BT474, assigned as in Table 1, based on the IC50 results for BMS-A) was “R”, the IC50 (BT-474 breast cell line; BT-474, 72 hours, mean of 2 to 5 determinations, read-out: mean IC50 (μM) to BMS-A) was 6.74 µM and the Classification (BT-474 breast cell line; BT-474, resistance/sensitivity to BMS-A based on IC50) was “Resistant (those having a log10(IC50) above the mean log10(IC50) were considered to be resistant)”. The EphA2 polynucleotide expression [2] was “down regulated” and the caveolin-2 polynucleotide expression [2] was “down regulated”.
